Data reported in the METLIN SMRT retention time set (Domingo-Almenara et al. 2019).

Assay: gradient 5% acetonitrile 3 min, to 50% in 2 min, to 85% in 15 min, held 3 min, 100 µL/min
Settings: column: Zorbax Extend-C18 2.1 x 50 mm; eluents: water / acetonitrile, 0.1% formic acid
How it was run: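 Retention times of pure standards were taken from adduct peaks that were selected by computer and manually inspected. Over 3 months, mixtures of ~100 molecules were run by HPLC–quadrupole time-of-flight mass spectrometry in positive and negative ionization mode. The Zorbax Extend-C18 column (2.1 × 50 mm, 1.8 μm) ran at 100 μL/min in water and acetonitrile, each containing 0.1% formic acid, with 40 μL dead volume and 900 μL dwell volume.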

Row | RP-LC retention time | Structure (SMILES)
1 | 808 s | CCC(C)N(CC(=O)N(Cc1ccco1)CC1CCCO1)C(=O)c1ccc(OC)cc1 (stereo not drawn)
2 | 1120 s | Cc1ccc(Sc2nccnc2N2CCCC(C(=O)NCc3cc(F)cc(F)c3)C2)cc1 (stereo not drawn)
3 | 1030 s | COc1ccccc1-c1nc(C2CCN(C(=O)c3cc4cc(Cl)ccc4[nH]3)CC2)no1
4 | 697 s | Cc1cccc(NC(=O)N2CCC(c3nc(C(=O)N(C)C)c(C)o3)CC2)c1C
5 | 893 s | Cc1ccc(-n2c(N3CCCC(C(=O)NCc4ccc(C)o4)C3)nc3ccsc3c2=O)cc1 (stereo not drawn)
6 | 1080 s | CC(=O)SCC(Cc1ccccc1)C(=O)NCC(=O)OCc1ccccc1 (stereo not drawn)
7 | 598 s | CC(NC(=O)C1CCCN(c2cnc3nccnc3c2)C1)c1cccnc1 (stereo not drawn)
8 | 689 s | CCCCS(=O)(=O)N1CCCC(c2nnc(C)s2)C1 (stereo not drawn)
9 | 1160 s | CCOc1ccc(C2Cn3nnc(-c4nc(-c5ccc(OC)cc5)no4)c3CO2)cc1 (stereo not drawn)
10 | 733 s | NS(=O)(=O)c1ccc(CCNC(=O)c2nc(Cn3nc(-c4ccc(F)cc4)ccc3=O)no2)cc1
11 | 1010 s | CCOc1ccc(CCNC(=O)C2CCCN(S(=O)(=O)N3CCC(C)CC3)C2)cc1 (stereo not drawn)
12 | 695 s | Cc1ccc(-c2noc(-c3ccc(NCCCN4CCOCC4)nc3)n2)cc1
13 | 750 s | O=C(Cn1ncc2c(c1=O)N(CC1CC1)C(=O)CS2)NCc1ccc(F)cc1
14 | 1130 s | O=C(c1cc(F)ccc1Cl)N1CCc2nc(-c3ccc(Cl)cc3)ncc2C1
15 | 1230 s | CC(C)(C)c1csc(-c2csc(S(=O)(=O)NCc3ccccc3)c2)n1
16 | 584 s | COCC1CN(C2CCC2)CC12CCN(C(=O)C(C)C)CC2 (stereo not drawn)
17 | 843 s | O=C(Cc1ccc(Cl)s1)Nc1nnc(-c2cc3ccccc3o2)o1
18 | 842 s | CCOC(=O)C1CCN(C(=O)C2CCN(c3nnc(-c4ccc(C)cc4)o3)CC2)CC1
19 | 871 s | COc1ccc(NC(=O)C2CCN(S(=O)(=O)c3cc(-c4noc(C)n4)cs3)CC2)cc1
20 | 640 s | COc1cccc(CC(=O)NC(C)C(=O)Nc2nc3ccccc3[nH]2)c1 (stereo not drawn)
21 | 656 s | Cc1ccc(S(=O)(=O)N2CCN(CCc3cn(C)c4ncccc34)CC2)cc1C
22 | 898 s | O=C(Cn1nc(N2CCOCC2)c2ccccc2c1=O)Nc1ccc(C(F)(F)F)cc1

Row | RP-LC retention time | Structure (SMILES)
23 | 676 s | CCc1nncn1C1CCN(S(=O)(=O)c2ccc(F)cc2)CC1
24 | 1170 s | Cc1ccc(-c2csc(-c3cccn3CC(=O)N(C)Cc3ccco3)n2)cc1
25 | 1160 s | Cc1cccc(S(=O)(=O)N2CCc3nc(-c4ccccc4)ncc3C2)c1C
26 | 992 s | O=C(c1cn(-c2cc(N3CCSCC3)ncn2)cn1)N1CC=C(c2ccccc2)CC1
27 | 1190 s | Cc1cc(O)c(C(C)C)cc1NC(=O)Nc1cccc2ccccc12
28 | 871 s | O=C(Cc1ccc(F)cc1)NCC1CC(=O)N(Cc2ccc(F)cc2)C1 (stereo not drawn)
29 | 821 s | Cc1ccc2c(Nc3ccccc3Cl)c(-c3nc(C)no3)cnc2n1
30 | 640 s | CC(C)C(=O)NCc1cnn(-c2ccc(C(=O)NCC3CCCO3)cc2)c1 (stereo not drawn)
31 | 556 s | CCn1ncc(CN(C)C(=O)c2cn3ccccc3n2)c1C
32 | 672 s | O=C(Nc1nccs1)C1CCN(C(=O)C2CC(=O)N(c3ccc(F)cc3)C2)CC1 (stereo not drawn)
33 | 878 s | COc1ccc(Cc2nc3nccc(-c4ccc(OC)cc4)n3n2)cc1
34 | 692 s | Cc1ccccc1CNC(=O)c1cn2ccncc2n1
35 | 627 s | Cc1c(-c2cccc(NS(=O)(=O)c3ccc(Cl)cc3)c2)nc2ncccn12
36 | 908 s | CCOc1nc2ccccc2nc1N1CCCC(C(=O)Nc2ccc(NC(C)=O)cc2)C1 (stereo not drawn)
37 | 751 s | Cc1ccc2nc(-c3ccccc3O)c(Nc3ccccc3C)n2c1
38 | 969 s | COc1ccc(-c2nc(C3CC(=O)N(c4ccc(F)cc4)C3)no2)cc1F (stereo not drawn)
39 | 730 s | CCNC(=O)C1CCCN(C(=O)Nc2ccc(NC(=O)Nc3ccc(C)cc3C)cc2)C1 (stereo not drawn)
40 | 715 s | Clc1ccc2nc(-c3ccc(N4CCOCC4)cc3)c(Nc3ccc4c(c3)OCO4)n2c1
41 | 728 s | Cc1nnc(-c2cccnc2N2CCN(C(=O)CC3CCCC3)CC2)o1
42 | 873 s | CC1=C(C(=O)Nc2cccc(C(=O)N3CCN(c4ccccc4)CC3)c2)SCCO1
43 | 988 s | CC(=O)c1cccc(NC(=O)c2sc3ccccc3c2Cl)c1
44 | 983 s | CCOC(=O)C1CCCN(c2ncc(S(=O)(=O)c3ccc(C)cc3)c(N)n2)C1 (stereo not drawn)

Row | RP-LC retention time | Structure (SMILES)
45 | 1120 s | COCCc1noc(-c2nc(-c3ccc(C)cc3)no2)n1
46 | 860 s | COc1cccc(OC)c1-c1cc(C(=O)NC2(C(=O)O)C3CC4CC(C3)CC2C4)nn1-c1ccc(C(=O)N(C)CCCN(C)C)cc1C(C)C (stereo not drawn)
47 | 964 s | CCOc1ccc(C(=O)Nc2cccn3nc(C(C)C)nc23)cc1
48 | 1310 s | CCOC(=O)c1sc2ncnc(N3CCc4ccccc4C3)c2c1C
49 | 998 s | Cc1ccc(NC(=O)CN(C)S(=O)(=O)c2cc(C(=O)N3CCC(C)CC3)n(C)c2)cc1Cl
50 | 852 s | Cc1ccc(C)c(NC(=O)Cn2c(=O)n(-c3ccccc3)c3ncccc32)c1
51 | 949 s | Cc1cccc2c(=O)n(C3CCN(S(=O)(=O)c4ccc(F)cc4)CC3)cnc12
52 | 906 s | COc1ccc(OCc2nnc3sc(-c4ccc5c(c4)OCCO5)nn23)cc1
53 | 835 s | CCCN(C)c1nccnc1OC1CCN(C(=O)CC(C)C)C1 (stereo not drawn)
54 | 884 s | O=C(NCc1ccc2c(c1)OCCCO2)c1ccc(Br)cc1
55 | 946 s | O=C(Nc1ccccc1F)N1CC(c2nc(CCOCC3CCCC3)no2)C1
56 | 763 s | Cc1nc(CC(=O)NC(C)c2ccccc2)sc1C(=O)NCC(C)C (stereo not drawn)
57 | 841 s | CCOC(=O)N1CCN(C(=O)CSCC(=O)Nc2nc(-c3ccc(OC)cc3)cs2)CC1
58 | 734 s | COc1ccccc1NC(=O)Cc1csc2nc(-c3ccc(OC)c(OC)c3)cn12
59 | 664 s | CC1(C)C(=O)N(CC(=O)Nc2c3c(nc4ccccc24)CCCC3)c2ccccc21
60 | 742 s | Cc1cnc(C(=O)N[C@@H]2CCC[C@@H]2C(=O)NCC2CCCCC2)cn1
61 | 772 s | O=C(Nc1cccc(F)c1)c1csc(-c2ccc(N3CCCC3)nc2)n1
62 | 699 s | O=C(Cc1ccsc1)Nc1cccn2ncnc12
63 | 696 s | COc1ccc(Cl)cc1NC(=O)N1CCN(CCn2c(C(F)(F)F)nc3cccnc32)CC1
64 | 743 s | O=C(Nc1ccc(F)cc1)c1csc(-c2ccc(N3CCCC3)nc2)n1
65 | 581 s | CCn1ccc(C(=O)NC2CCN(c3nnc4ccc(Cl)cn34)CC2)n1
66 | 633 s | Cc1noc(CNC(=O)CCCN2C(=O)c3ccccc3C2=O)n1

Row | RP-LC retention time | Structure (SMILES)
67 | 756 s | COc1ccc(-c2nc3ncccn3c2NCc2ccc(C)cc2)cc1
68 | 929 s | CN(C)c1ccc(C(=O)N2CCC(COc3ccc(C(=O)N4CCCCC4)cc3)CC2)cc1
69 | 739 s | CCOc1ccc(NC(=O)N2CCC3(CC2)NC(=O)c2ccccc2O3)cc1
70 | 1260 s | O=C(Nc1nc(-c2ccccc2)cs1)c1sc2cc([N+](=O)[O-])ccc2c1Cl
71 | 652 s | O=C(Cn1ncc2c(N3CCN(c4ccccn4)CC3)ncnc21)Nc1ccc(Br)cc1
72 | 895 s | CCc1oc2cc(S(=O)(=O)Nc3ccc(S(=O)(=O)Nc4nccs4)cc3)ccc2c1C(=O)c1cc(Br)c(O)c(Br)c1
73 | 706 s | CCn1c(=O)n(CC(=O)NCCN2CCCC2)c(=O)c2cnc(-c3ccc(Cl)cc3)nc21
74 | 586 s | O=C(NCc1ccc(N2CCOCC2)cc1)c1cn2c(n1)CCCC2
75 | 736 s | O=C(CN1C(=O)C2CCCCN2c2ccc(S(=O)(=O)N3CCCC3)cc21)NCC1COCCO1 (stereo not drawn)
76 | 740 s | O=C(NCCc1nc(-c2ccccc2)cs1)C1CC(=O)N(c2n[nH]c3ccccc23)C1 (stereo not drawn)
77 | 890 s | Cc1ccc2nc(-c3ccc(Cl)cc3)c(Nc3ccccc3C)n2c1
78 | 671 s | CN(CC1CCOC1)C(=O)Nc1ccc(F)cc1 (stereo not drawn)
79 | 689 s | O=C(NCC1CCN(C(=O)Oc2ccccc2)CC1)c1cnccn1
80 | 897 s | Cc1nc(-c2ccccc2)nn1C1CCN(S(=O)(=O)c2ccccc2C(F)(F)F)C1 (stereo not drawn)
81 | 588 s | CCOc1ccc2nc(Nc3ncc4c(n3)CCCC4=O)nc(C)c2c1
82 | 679 s | Cn1nccc1C(=O)N1CCN(S(=O)(=O)c2ccc3c(c2)oc(=O)n3C)CC1
83 | 732 s | CN1C(=O)c2cc(C(=O)Nc3ccc(F)cc3F)nn2CC1(C)C(=O)NC1CCCCC1 (stereo not drawn)
84 | 1250 s | Cc1cccc(-c2nnc(-c3ccc(Cl)c(S(=O)(=O)N4CCCCC4)c3)o2)c1
85 | 697 s | Clc1ccc(-c2noc3ncnc(N4CCN(c5ccccn5)CC4)c23)cc1
86 | 614 s | O=C(c1cccc(N2CCNC(c3ccccc3)C2)n1)N1CCSCC1 (stereo not drawn)

Row | Structure (SMILES) | RP-LC retention time
87 | CCn1cc(C(=O)Nc2cc(Cl)ccc2C)c2cccnc21 | 922 s
88 | Cc1noc(C)c1S(=O)(=O)N1[C@H]2CC[C@@H]1c1cnc(-c3ccccc3)nc1C2 | 1050 s
